Experimental data published in patent US10316008B2, “KCNQ potassium channel agonist, and preparation method therefor and use thereof” (SHANGHAI INSTITUTE OF MATERIA MEDICA, CHINESE ACADEMY OF …, priority 2014, dated 2019).
Where “and” joins values, the source holds several entries; their conditions need not be identical. Identical values can stand only once. Like-named read-outs stand apart in the source and are kept apart here.

Assays:
[1] = target: T1, KCNQ2 homotetramer channel (Homo sapiens, UniProt O43526); assay: KCNQ2 channel dose-response curve in CHO-K1 cells transfected with KCNQ2 plasmid; format: cell-based
T1 construct: expressed in transfected cells; host or cells: CHO-K1
T1 sequence (O43526 whole entry): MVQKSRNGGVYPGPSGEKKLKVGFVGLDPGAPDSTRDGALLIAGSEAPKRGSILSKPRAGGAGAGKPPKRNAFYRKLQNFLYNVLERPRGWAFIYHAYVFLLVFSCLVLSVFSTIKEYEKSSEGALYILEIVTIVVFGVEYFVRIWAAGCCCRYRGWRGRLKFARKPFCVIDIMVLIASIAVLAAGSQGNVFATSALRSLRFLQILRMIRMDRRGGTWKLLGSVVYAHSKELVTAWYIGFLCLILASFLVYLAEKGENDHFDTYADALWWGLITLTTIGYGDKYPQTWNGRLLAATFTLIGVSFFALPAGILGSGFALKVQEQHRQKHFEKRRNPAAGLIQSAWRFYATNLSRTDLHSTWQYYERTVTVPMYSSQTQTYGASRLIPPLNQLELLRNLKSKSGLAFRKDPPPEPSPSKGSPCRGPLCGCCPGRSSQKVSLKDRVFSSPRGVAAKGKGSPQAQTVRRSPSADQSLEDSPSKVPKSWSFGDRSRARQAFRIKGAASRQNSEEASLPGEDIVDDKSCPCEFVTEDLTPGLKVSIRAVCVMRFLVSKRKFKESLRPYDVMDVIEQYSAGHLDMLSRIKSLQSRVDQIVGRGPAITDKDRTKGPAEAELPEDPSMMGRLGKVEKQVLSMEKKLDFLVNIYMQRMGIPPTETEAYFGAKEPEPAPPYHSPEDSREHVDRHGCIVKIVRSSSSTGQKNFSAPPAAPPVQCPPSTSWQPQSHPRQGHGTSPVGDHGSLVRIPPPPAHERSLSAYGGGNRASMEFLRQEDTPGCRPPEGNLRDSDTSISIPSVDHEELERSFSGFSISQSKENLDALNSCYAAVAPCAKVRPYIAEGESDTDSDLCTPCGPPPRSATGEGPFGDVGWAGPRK
Protocol: The culture medium for Chinese hamster oocytes (CHO-K1) (Culture Collection of Chinese Academy of Sciences): 50/50 DMEM/F-12 (Cellgro, Manassas, Va.), added with 10% fetal bovine serum (FBS) (Gibco, Australia) and 2 mM L-glutamic acid (Invitrogen). Expression of KCNQ channels: 24 h before transfection, CHO-K1 spreaded on a dish with a diameter of 60 mm. Lipofectamine 2000™ agent (Invitrogen) was used for Transfection according to the protocol thereof. GFP (green fluorescent protein) was cotransfected to be used as a indication of successful converting into KCNQ plasmid.
Whole-cell voltage-clamp recording was performed on an Axopatch-200B amplifier (Molecular Devices, Sunnyvale, Calif.) at room temperature. The electrode was made by drawing borosilicate glass capillary (World Precision Instruments, Sarasota, Fla.). The electric resistance of the electrode filled with an intracellular fluid is 3 to 5 MΩ. The composition of the intracellular fluid (1 L) was as follows: 145 mM KCl(Sigma), 1 mM MgCl2(Sigma), 5 mM EGTA(Sigma), 10 mM HEPES(Sigma) and 5 mM MgATP(Sigma) (pH was adjusted to 7.3 with KOH). During the recording, an extracellular fluid was continuously perfused by using a BPS perfusion system (ALA Scientific Instruments, Westburg, N.Y.). The composition of the extracellular fluid (1 L) was as follows: 140 mM NaCl(Sigma), 5 mM KCl(Sigma), 2 mM CaCl2(Sigma), 1.5 mM MgCl2(Sigma), 10 mM HEPES(Sigma) and 10 mM glucose(Sigma) (pH was adjusted to 7.4 with NaOH). Electric signal was filtered at 1 kHz and further converted into digital signal by using pClamp 9.2 software (Molecular Devices, Sunnyvale, Calif.) in DigiData 1322A. Series resistors compensate 60 to 80%. Up to date, multivoltage scheme was generally adopted, wherein the clamp voltage was set at −80 mV, stimulating voltage was a gradient voltage from −90 mV to 60 mV with interval of 10 mV, and the stimulating time for each voltage was 2000 ms.
The experimental procedure was the same as that in Electrophysiological Example 1. […]

[2] = Pharmacokinetics and distribution in brain tissue in rats; format: in vivo, Sprague Dawley rats; settings: SD rats; for Vd: read-out: VdSS
Protocol: After K43 was administered to Sprague Dawley rats via intravenous injection or oral administration, blood sample and brain tissue were collected at different time points. the concentration of K43 in plasma and brain of rats after administration of the compounds was analyzed by LC-MS/MS and used to calculate the pharmacokinetic parameters, evaluating the oral bioavailability and distribution in brain tissue of K43 in rats.
24 SD rats, which were provided by SHANGHAI SLAC LABORATORY ANIMAL CO. LTD., were used to perform the experiments according to the following table.
About 0.15 mL of blood was collected through orbit per animal every time, and EDTAK2 was used for anticoagulation. For IV group, the time points for collection were before administration (0 hr), and 5 min, 15 min, 30 min, 1 h, 2 h, 4 h, 6 h, 8 h and 24 h after administration; and for PO group, the time points for collection were before administration (0 hr), 15 min, 30 min, 1 h, 2 h, 4 h, 6 h, 8 h and 24 h after administration. The time points for collecting brain tissue were 0.25, 0.5, 1, 2, 4, 6 and 24 h. The collected blood samples were placed on icen, and plasma was centrifuged within 1 h (centrifugal condition: 12000 rpm, 2 min, 4° C.). The collected plasma was cryopreserved in a −20° C. refrigerator before analysis.
Pharmacokinetic parameters after administration were calculated according to the obtained data of plasma concentration using the non-compartmental model of WinNonlin V6.3.

[3] = IV 0.500 mg/kg, plasma, individual animals IV-1 to IV-3, 0.5 mg/kg
[4] = PO 5.00 mg/kg, plasma, individual animals PO-4 to PO-6, 5 mg/kg
[5] = Sprague-Dawley, rat, plasma, iv, 0.5 mg/kg, IV 0.500 mg/kg, individual animals IV-1 to IV-3
[6] = Sprague-Dawley, rat, plasma, iv, 0.5 mg/kg, IV 0.500 mg/kg, mean

With `C#CCN(Cc1ccc(F)cc1)c1cc(C)c(NC(=O)OC)c(C)c1` [Compound K43, methyl 4-(N-parafluorobenzyl-N-propargyl-amino)-2,6-dimethylphenylaminoformate] the EC50 ([1]; FIG. 1, Boltzmann fit, read-out: EC50) was 1.53 nM, the “agonistic activity on KCNQ2 homotetramer channel relative to RTG” value ([1]; fold of RTG) was “more than 800 times” and the AUC0-t [2, 3] was 232 ng·h/mL and 239 ng·h/mL. For the same molecule, the AUC(0-inf) [2, 3] was 236 ng·h/mL and 242 ng·h/mL, the AUMC0-inf [2, 3] was 304 h · h · ng · mL^−1 and 295 h · h · ng · mL^−1 and 293 h · h · ng · mL^−1 and the AUMC0-t [2, 3] was 287 h · h · ng · mL^−1 and 258 h · h · ng · mL^−1 and 270 h · h · ng · mL^−1. The CL [2, 3] was 35.3 mL/min/kg and 34.5 mL/min/kg, the Kcl [2, 3] was 0.552 h⁻¹ and 0.427 h⁻¹ and 0.516 h⁻¹ and the MRTIV [2, 3] was 1.38 h and 1.25 h and 1.21 h. For the same molecule, the VdSS [2, 3] was 2.65 L/kg and 2.51 L/kg, the t1/2 [2, 3] was 1.62 h and 1.34 h and the AUMC0-inf ([2]; IV 0.500 mg/kg, plasma, mean) was 297 h · h · ng · mL^−1. The AUMC0-t ([2]; IV 0.500 mg/kg, plasma, mean) was 271 h · h · ng · mL^−1, the Kcl ([2]; IV 0.500 mg/kg, plasma, mean) was 0.498 h⁻¹ and the MRTIV ([2]; IV 0.500 mg/kg, plasma, mean) was 1.28 h. The AUC(0-inf) ([2]; PO 5.00 mg/kg, brain tissue) was 4314 ng·h/g, the AUMC0-inf ([2]; PO 5.00 mg/kg, brain tissue) was 85535 h · h · ng · g^−1 and the AUMC0-t ([2]; PO 5.00 mg/kg, brain tissue) was 25306 h · h · ng · g^−1. The Kel ([2]; PO 5.00 mg/kg, brain tissue) was 0.0542 h⁻¹, the MRTPO ([2]; PO 5.00 mg/kg, brain tissue) was 19.8 h and the AUC0-t ([2]; PO 5.00 mg/kg, brain tissue (AUC0→24 hr)) was 2895 ng·h/g. The F ([2]; PO 5.00 mg/kg, individual animals PO-4 to PO-6, 5 mg/kg) was 20.3% and 59.9% and 16.5%, the AUC0-t [2, 4] was 467 ng·h/mL and 1379 ng·h/mL and 379 ng·h/mL and the AUC(0-inf) [2, 4] was 471 ng·h/mL and 1605 ng·h/mL and 407 ng·h/mL. For the same molecule, the AUMC0-inf [2, 4] was 2497 h · h · ng · mL^−1 and 18103 h · h · ng · mL^−1 and 1256 h · h · ng · mL^−1, the AUMC0-t [2, 4] was 2360 h · h · ng · mL^−1 and 10030 h · h · ng · mL^−1 and 957 h · h · ng · mL^−1 and the Cmax [2, 4] was 62.7 ng/mL and 138 ng/mL and 107 ng/mL. The Kcl [2, 4] was 0.186 h⁻¹ and 0.0857 h⁻¹ and 0.371 h⁻¹, the MRTPO [2, 4] was 5.30 h and 11.3 h and 3.09 h and the Tmax [2, 4] was 4.00 h and 1.00 h. For the same molecule, the t1/2 [2, 4] was 3.74 h and 8.09 h and 1.87 h, the AUMC0-inf ([2]; PO 5.00 mg/kg, plasma, mean) was 7285 h · h · ng · mL^−1 and the AUMC0-t ([2]; PO 5.00 mg/kg, plasma, mean) was 4449 h · h · ng · mL^−1. The Kcl ([2]; PO 5.00 mg/kg, plasma, mean) was 0.214 h⁻¹, the MRTPO ([2]; PO 5.00 mg/kg, plasma, mean) was 6.55 h and the half-life ([2]; Sprague-Dawley, rat, brain, po, 5 mg/kg, PO 5.00 mg/kg, brain tissue) was 12.8 h. The Cmax ([2]; Sprague-Dawley, rat, brain, po, 5 mg/kg, PO 5.00 mg/kg, brain tissue, read-out: Cmax) was 366 ng/g, the Tmax ([2]; Sprague-Dawley, rat, brain, po, 5 mg/kg, PO 5.00 mg/kg, brain tissue, read-out: tmax) was 2 h and the clearance [2, 5] was 37.8 mL/min/kg. It also gave a half-life [2, 5] of 1.26 h, a clearance [2, 6] of 35.8 ± 1.7 mL/min/kg and a half-life [2, 6] of 1.41 ± 0.191 h. The AUC(0-inf) ([2]; Sprague-Dawley, rat, plasma, iv, 0.5 mg/kg, IV 0.500 mg/kg, plasma, individual animals IV-1 to IV-3, read-out: AUC0-inf) was 221 ng·h/mL, the AUC0-t ([2]; Sprague-Dawley, rat, plasma, iv, 0.5 mg/kg, IV 0.500 mg/kg, plasma, individual animals IV-1 to IV-3, read-out: AUC0-t) was 219 ng·h/mL and the Vd ([2]; Sprague-Dawley, rat, plasma, iv, 0.5 mg/kg, IV 0.500 mg/kg, plasma, individual animals IV-1 to IV-3) was 3.13 L/kg. For the same molecule, the AUC(0-inf) ([2]; Sprague-Dawley, rat, plasma, iv, 0.5 mg/kg, IV 0.500 mg/kg, plasma, mean, read-out: AUC0-inf) was 233 ng·h/mL, the AUC0-t ([2]; Sprague-Dawley, rat, plasma, iv, 0.5 mg/kg, IV 0.500 mg/kg, plasma, mean, read-out: AUC0-t) was 230 ng·h/mL and the Vd ([2]; Sprague-Dawley, rat, plasma, iv, 0.5 mg/kg, IV 0.500 mg/kg, plasma, mean) was 2.76 ± 0.324 L/kg. For the same molecule, the half-life ([2]; Sprague-Dawley, rat, plasma, po, 5 mg/kg, PO 5.00 mg/kg, mean) was 4.56 h, the AUC0-t ([2]; Sprague-Dawley, rat, plasma, po, 5 mg/kg, PO 5.00 mg/kg, plasma, mean (AUC0→24 hr), read-out: AUC0-t) was 742 ± 554 ng·h/mL and the AUC(0-inf) ([2]; Sprague-Dawley, rat, plasma, po, 5 mg/kg, PO 5.00 mg/kg, plasma, mean, read-out: AUC0-inf) was 828 ng·h/mL. The Cmax ([2]; Sprague-Dawley, rat, plasma, po, 5 mg/kg, PO 5.00 mg/kg, plasma, mean, read-out: Cmax) was 103 ± 37.8 ng/mL, the Tmax ([2]; Sprague-Dawley, rat, plasma, po, 5 mg/kg, PO 5.00 mg/kg, plasma, mean, read-out: tmax) was 2.33 ± 1.53 h and the bioavailability ([2]; Sprague-Dawley, rat, plasma, PO 5.00 mg/kg, mean, read-out: F (oral bioavailability)) was 32.2 ± 24.1%.
